Measured values reported in ChEMBL document CHEMBL1153930, “(-)-Dibromophakellin: an alpha2B adrenoceptor agonist isolated from the Australian marine sponge, Acanthella costata” (Bioorg Med Chem, 2009).
Blank lines part the entries; values can stand above or below the compound they belong to. Calls of active or inactive are those of the source. The calls are words filed in the database; no cut-off is given here.

Experiments:
[1] = molecular target: T1, Alpha-2B adrenergic receptor (Homo sapiens) (UniProt P18089); assay: Agonist activity at human adrenergic alpha2B receptor expressed in HEK293 cells coexpressing Gqi5 protein up to 83 uM by FLIPR assay; type: functional, cell-based
T1 sequence (whole entry): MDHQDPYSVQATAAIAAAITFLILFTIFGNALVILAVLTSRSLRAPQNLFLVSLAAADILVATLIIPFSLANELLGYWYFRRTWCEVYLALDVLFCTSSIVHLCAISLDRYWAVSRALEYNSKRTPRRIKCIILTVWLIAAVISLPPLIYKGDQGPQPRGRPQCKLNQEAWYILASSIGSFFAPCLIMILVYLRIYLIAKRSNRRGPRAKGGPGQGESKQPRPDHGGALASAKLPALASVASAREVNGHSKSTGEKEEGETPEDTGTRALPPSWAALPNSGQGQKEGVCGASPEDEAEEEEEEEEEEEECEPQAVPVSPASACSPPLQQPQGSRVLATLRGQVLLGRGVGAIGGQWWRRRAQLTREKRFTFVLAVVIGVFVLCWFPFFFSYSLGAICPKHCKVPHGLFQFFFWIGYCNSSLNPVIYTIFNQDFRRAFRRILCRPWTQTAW

[2] = molecular target: T2, Alpha-2B adrenergic receptor (Homo sapiens, UniProt P18089); assay: Agonist activity at human adrenergic alpha2B receptor expressed in HEK293 cells coexpressing Gqi5 protein by FLIPR assay; type: functional, cell-based
T2 sequence (P18089 whole entry): T1 sequence (whole entry)

Structure (SMILES): NC1=N[C@]23CCCN2C(=O)c2cc(-c4ccccc4)c(-c4ccccc4)n2[C@@H]3N1
- Activity [1]: inactive

Structure (SMILES): NC1=N[C@]23CCCN2C(=O)c2cc(Br)cn2[C@@H]3N1
- Activity [1]: inactive

Structure (SMILES): NC1=N[C@]23CCCN2C(=O)c2cccn2[C@@H]3N1
- Activity [1]: inactive

Second part, the compound after the results:

- EC50 [2]: 4.2 µM
Structure (SMILES): NC1=N[C@H]2n3c(cc(Br)c3Br)C(=O)N3CCC[C@]23N1 [DIBROMOPHAKELLIN]

- Activity [1]: inactive
Structure (SMILES): NC1=N[C@]23CCCN2C(=O)c2cc(Br)c(-c4ccccc4)n2[C@@H]3N1
